Test results published in paper PMC8654833 (Scientific Reports, 2021).

Assays:
DAT = target: T1, DAT (Homo sapiens, UniProt Q01959); experiment: Radioligand binding competition dose-response (Euroscreen), dopamine transporter; details: dose-response study, maximal concentration 10 µM, [3H]WIN 35,428; read-out: %Binding inhibition at 10 µM
T1 construct: Euroscreen FAST (contract assay)
Method: (§1) This study included binding assays (87 GPCR targets), measured as % of binding inhibition of a reference radioligand, as well as uptake and enzyme assays (19 targets), the latter measured as % inhibition of control enzyme activity. […] It was performed by radioligand binding competition by Euroscreen (Euroscreen FAST, Belgium). The following nanomolar concentrations were tested in duplicate: 0.001, 0.01, 0.1, 1, 10, 100, 1000, 10,000. Dose–response curves were fitted with the least squares method. IC50 results are shown as pIC50, corresponding to the negative log10 of IC50 in molar.

5-HT5A = target: T2, 5-HT5A (Homo sapiens, UniProt P47898); experiment: Radioligand binding competition dose-response (Euroscreen), 5-HT5A; details: dose-response study, maximal concentration 10 µM, [3H]LSD
T2 construct: Euroscreen FAST (contract assay)
Method: as §1

Ca^2+ channel, vs = experiment: Radioligand binding competition dose-response (Euroscreen), Ca2+ channel verapamil site
Method: as §1

Ca^2+ channel, ds = experiment: Radioligand binding competition dose-response (Euroscreen), Ca2+ channel diltiazem site
Method: as §1

5-HT2A = 5-HT2A (Homo sapiens, UniProt P28223); experiment: biochemical; details: read-out: %Binding inhibition at 10 µM
Method: as §1

T2 sequence (P47898 whole entry, species assumed): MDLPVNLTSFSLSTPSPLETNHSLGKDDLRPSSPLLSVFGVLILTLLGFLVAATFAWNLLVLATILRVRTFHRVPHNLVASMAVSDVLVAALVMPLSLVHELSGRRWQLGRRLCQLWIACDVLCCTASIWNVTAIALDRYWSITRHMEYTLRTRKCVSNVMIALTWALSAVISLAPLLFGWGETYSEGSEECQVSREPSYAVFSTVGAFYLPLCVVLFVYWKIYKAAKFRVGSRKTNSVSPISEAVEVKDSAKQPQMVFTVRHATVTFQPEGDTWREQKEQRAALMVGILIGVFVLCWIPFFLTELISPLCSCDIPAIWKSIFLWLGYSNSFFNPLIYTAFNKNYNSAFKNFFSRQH
Chain of 5-HT2A (P28223 whole entry, species assumed): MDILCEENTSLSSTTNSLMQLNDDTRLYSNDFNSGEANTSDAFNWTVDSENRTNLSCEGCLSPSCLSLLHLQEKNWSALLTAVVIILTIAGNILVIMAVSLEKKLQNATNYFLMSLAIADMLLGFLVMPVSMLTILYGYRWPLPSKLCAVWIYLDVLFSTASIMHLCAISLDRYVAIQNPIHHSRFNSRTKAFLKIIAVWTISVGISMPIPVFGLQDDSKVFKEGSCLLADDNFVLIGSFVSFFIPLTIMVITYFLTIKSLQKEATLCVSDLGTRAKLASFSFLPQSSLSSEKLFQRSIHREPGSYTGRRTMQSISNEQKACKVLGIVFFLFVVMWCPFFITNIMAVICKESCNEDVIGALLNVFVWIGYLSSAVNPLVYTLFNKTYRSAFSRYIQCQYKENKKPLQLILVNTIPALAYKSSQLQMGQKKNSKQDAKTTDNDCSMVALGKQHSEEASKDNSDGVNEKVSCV
T1 sequence (Q01959 whole entry, species assumed): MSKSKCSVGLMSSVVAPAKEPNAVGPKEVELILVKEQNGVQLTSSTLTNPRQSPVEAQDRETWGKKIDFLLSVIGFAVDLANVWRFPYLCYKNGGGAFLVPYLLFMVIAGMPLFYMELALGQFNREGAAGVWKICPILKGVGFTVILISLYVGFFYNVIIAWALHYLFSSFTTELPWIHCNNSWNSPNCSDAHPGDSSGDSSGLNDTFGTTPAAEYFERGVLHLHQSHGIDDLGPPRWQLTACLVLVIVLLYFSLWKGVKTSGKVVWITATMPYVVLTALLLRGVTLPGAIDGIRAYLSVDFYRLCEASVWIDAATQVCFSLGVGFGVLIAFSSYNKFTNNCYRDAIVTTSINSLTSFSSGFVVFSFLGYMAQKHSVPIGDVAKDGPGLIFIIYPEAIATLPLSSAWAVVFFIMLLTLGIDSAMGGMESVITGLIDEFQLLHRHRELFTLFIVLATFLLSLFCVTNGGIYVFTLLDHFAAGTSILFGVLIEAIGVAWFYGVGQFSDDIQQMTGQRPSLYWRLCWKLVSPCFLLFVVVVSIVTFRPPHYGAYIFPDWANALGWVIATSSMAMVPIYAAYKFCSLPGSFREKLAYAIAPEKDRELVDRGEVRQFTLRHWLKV

Fc1ccc(C(OCCN2CCN(CCCc3ccccc3)CC2)c2ccc(F)cc2)cc1 [GBR 12909]
inhibition at 10 µM (DAT): 104%

CSc1ccc2c(c1)C(N1CCN(C)CC1)Cc1ccccc1S2 (stereo not shown) [Methiothepin]
%Binding inhibition at 10 µM (5-HT5A): 101.21%

COc1ccc(CCN(C)CCCC(C#N)(c2cc(OC)c(OC)c(OC)c2)C(C)C)cc1OC (stereo not shown) [Methoxyverapamil]
pIC50 (Ca^2+ channel, vs; [3H]D888 competition): 6.56
%Binding inhibition at 10 µM (Ca^2+ channel, vs; dose-response study, maximal concentration 10 µM, [3H]D888): 112.06%

COc1ccc([C@@H]2Sc3ccccc3N(CCN(C)C)C(=O)[C@@H]2OC(C)=O)cc1 [Diltiazem]
pIC50 (Ca^2+ channel, ds; [3H]diltiazem competition): 4.79
%Binding inhibition at 10 µM (Ca^2+ channel, ds; dose-response study, maximal concentration 10 µM, [3H]diltiazem): 116.63%

O=C(c1ccc(F)cc1)C1CCN(CCn2c(=O)[nH]c3ccccc3c2=O)CC1 [Ketanserin]
inhibition at 10 µM (5-HT2A): 103%
